What was measured:
[1] = molecular target: VEGFR1 (Homo sapiens (Human), UniProt P17948); test: Enzymic VEGFR1; type: biochemical
[2] = molecular target: VEGFR2 (Homo sapiens (Human), UniProt P35968); test: VEGF Stimulated Ca++ Signal In Vitro (Cellular VEGFR2, FLIPR); type: cell-based; settings: HUVEC, VEGF stimulation (5 ng/mL), intracellular calcium
[3] = molecular target: human VEGF receptor (VEGFR-2) (Homo sapiens (Human), UniProt P35968); test: VEGFR2 Kinase Assay (Enzymic VEGFR2); type: biochemical; settings: His-VEGFR-2 cytoplasmic domain, 3.6 µM ATP
Method: VEGFR2 Kinase Assay The cytoplasmic domain of the human VEGF receptor (VEGFR-2) was expressed as a Histidine-tagged fusion protein following infection of insect cells using an His engineered baculovirus. […] Kinase assays were performed in 96 well microtiter plates that were coated overnight with 30 µg of poly-Glu-[…]:1) in 10 mM Phosphate Buffered Saline (PBS), pH 7.2-7.4. The plates were incubated with 1% BSA and then washed four times with PBS prior to starting the reaction. […] Reactions were initiated by the addition 0.5 ng of purified protein. Following a ten minute incubation at 25° C., the reactions were washed four times with PBS containing 0.05% Tween-20. 100 µl of a monoclonal anti-phosphotyrosine antibody-peroxidase conjugate was diluted 1:10000 in PBS-Tween-20 and added to the wells for 30 minutes. Following four washes with PBS-Tween-20, 100 µl of 0-phenylenediamine Dihydrochloride in Phosphate-citrate buffer, containing urea hydrogen peroxide, was added to the wells for 7 minutes as a colorimetric substrate for the peroxidase. […] IC50 values for compound inhibition were calculated directly from graphs of optical density (arbitrary units) versus compound concentration following subtraction of blank values.

[4] = molecular target: PDGFRβ (Homo sapiens (Human), UniProt P09619); test: Enzymic PDGFRβ; type: biochemical
[5] = test system: Rabbit Eye VEGF Permeability; test: Rabbit Eye VEGF Permeability Model; type: in vivo
Source text: Rabbit Eye VEGF Permeability Model
Assay used was detailed by Jeffrey Edelman, etc in Exp. Eye. Res. 80 (2005), Pg 249-258.

VEGFR2, sequence (P35968 20-1356): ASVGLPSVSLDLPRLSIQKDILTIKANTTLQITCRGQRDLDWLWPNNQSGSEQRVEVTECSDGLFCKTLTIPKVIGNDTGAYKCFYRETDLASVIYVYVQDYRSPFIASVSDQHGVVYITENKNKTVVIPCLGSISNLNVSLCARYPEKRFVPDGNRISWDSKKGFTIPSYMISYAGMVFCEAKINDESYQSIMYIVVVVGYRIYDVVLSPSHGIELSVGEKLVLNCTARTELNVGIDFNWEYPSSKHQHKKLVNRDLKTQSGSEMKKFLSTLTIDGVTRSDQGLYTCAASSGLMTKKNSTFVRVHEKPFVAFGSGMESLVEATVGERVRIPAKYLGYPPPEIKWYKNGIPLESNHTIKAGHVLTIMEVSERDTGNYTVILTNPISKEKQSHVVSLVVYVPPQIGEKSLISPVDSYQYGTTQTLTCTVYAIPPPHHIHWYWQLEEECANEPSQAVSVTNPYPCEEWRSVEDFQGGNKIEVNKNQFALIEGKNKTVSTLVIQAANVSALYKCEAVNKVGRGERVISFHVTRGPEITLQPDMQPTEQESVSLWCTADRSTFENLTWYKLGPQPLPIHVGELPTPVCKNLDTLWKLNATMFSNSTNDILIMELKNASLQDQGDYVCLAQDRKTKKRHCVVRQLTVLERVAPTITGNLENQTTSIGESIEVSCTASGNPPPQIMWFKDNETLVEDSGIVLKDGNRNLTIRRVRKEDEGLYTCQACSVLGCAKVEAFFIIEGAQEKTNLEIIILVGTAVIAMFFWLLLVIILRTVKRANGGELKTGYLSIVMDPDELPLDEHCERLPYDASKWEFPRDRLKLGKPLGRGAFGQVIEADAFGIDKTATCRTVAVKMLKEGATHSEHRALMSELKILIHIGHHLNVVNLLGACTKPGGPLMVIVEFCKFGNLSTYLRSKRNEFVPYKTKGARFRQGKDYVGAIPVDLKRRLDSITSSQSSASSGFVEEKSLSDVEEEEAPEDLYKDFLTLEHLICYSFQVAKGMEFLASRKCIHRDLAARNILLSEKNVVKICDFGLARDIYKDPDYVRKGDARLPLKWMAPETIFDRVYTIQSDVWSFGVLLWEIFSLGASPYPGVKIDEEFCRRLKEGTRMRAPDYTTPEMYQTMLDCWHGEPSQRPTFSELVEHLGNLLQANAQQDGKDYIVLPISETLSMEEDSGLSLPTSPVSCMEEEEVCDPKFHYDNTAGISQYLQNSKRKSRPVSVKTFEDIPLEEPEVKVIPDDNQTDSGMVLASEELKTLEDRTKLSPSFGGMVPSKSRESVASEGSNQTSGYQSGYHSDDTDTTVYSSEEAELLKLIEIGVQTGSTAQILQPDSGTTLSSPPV
VEGFR1, sequence (P17948 27-1338, species assumed): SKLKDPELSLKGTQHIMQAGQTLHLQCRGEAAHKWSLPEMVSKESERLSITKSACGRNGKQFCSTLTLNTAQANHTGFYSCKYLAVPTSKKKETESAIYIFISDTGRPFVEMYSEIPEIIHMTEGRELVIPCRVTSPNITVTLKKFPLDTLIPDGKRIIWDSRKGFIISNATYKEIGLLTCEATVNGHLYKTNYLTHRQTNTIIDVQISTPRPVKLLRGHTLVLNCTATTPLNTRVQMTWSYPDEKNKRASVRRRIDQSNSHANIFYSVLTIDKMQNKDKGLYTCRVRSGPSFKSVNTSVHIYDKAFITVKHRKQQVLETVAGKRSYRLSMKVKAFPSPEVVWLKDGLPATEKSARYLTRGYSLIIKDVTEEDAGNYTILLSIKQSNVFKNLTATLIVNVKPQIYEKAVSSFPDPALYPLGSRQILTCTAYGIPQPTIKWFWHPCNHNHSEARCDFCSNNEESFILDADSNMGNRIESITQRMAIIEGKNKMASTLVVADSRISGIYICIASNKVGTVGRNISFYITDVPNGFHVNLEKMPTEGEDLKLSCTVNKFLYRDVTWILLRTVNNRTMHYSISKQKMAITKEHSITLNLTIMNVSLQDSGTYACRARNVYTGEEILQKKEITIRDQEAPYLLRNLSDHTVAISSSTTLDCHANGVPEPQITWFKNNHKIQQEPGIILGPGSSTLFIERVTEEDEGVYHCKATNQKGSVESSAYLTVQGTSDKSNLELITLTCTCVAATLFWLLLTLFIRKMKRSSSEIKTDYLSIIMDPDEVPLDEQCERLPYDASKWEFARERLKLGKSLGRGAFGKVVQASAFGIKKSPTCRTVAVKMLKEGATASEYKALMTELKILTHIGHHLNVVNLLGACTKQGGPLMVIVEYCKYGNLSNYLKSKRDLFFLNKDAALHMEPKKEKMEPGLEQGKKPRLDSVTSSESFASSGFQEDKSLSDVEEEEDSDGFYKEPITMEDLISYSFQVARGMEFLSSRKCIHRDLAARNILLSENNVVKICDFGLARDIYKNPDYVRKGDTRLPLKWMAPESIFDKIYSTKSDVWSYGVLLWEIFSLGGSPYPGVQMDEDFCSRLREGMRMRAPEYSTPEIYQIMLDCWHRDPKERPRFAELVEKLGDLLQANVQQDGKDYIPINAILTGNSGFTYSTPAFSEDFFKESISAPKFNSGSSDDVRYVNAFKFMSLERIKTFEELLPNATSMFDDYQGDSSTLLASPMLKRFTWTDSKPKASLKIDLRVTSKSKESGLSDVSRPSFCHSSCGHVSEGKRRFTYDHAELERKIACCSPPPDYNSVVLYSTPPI
PDGFRβ, sequence (P09619 33-1106, species assumed): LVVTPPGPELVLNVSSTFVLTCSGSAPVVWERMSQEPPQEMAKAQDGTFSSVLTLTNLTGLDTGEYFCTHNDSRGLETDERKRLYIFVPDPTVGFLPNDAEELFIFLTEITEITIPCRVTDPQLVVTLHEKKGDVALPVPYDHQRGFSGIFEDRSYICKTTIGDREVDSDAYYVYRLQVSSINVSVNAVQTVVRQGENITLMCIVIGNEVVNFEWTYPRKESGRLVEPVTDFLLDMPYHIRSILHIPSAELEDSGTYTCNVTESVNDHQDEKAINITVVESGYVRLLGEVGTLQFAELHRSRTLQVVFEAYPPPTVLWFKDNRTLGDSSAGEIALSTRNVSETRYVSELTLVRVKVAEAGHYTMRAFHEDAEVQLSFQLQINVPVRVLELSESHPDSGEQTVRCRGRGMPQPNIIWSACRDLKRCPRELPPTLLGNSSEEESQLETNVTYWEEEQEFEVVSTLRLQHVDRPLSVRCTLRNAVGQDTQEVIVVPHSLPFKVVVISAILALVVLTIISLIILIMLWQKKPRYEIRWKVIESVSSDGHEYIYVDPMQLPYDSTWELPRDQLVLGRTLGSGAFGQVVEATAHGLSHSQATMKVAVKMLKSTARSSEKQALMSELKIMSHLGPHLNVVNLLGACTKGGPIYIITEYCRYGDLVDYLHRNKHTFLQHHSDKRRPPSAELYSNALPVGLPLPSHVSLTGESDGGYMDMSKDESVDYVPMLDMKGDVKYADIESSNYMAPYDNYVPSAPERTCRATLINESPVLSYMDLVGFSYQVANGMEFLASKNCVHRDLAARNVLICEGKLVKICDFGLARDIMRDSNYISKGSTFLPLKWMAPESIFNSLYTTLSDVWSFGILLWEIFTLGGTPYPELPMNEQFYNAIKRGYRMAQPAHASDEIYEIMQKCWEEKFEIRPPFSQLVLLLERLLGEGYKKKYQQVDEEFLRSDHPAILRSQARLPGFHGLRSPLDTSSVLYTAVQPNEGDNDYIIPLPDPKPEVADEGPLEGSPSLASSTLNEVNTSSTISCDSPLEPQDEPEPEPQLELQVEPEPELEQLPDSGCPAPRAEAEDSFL
human VEGF receptor (VEGFR-2), sequence (P35968 786-1356): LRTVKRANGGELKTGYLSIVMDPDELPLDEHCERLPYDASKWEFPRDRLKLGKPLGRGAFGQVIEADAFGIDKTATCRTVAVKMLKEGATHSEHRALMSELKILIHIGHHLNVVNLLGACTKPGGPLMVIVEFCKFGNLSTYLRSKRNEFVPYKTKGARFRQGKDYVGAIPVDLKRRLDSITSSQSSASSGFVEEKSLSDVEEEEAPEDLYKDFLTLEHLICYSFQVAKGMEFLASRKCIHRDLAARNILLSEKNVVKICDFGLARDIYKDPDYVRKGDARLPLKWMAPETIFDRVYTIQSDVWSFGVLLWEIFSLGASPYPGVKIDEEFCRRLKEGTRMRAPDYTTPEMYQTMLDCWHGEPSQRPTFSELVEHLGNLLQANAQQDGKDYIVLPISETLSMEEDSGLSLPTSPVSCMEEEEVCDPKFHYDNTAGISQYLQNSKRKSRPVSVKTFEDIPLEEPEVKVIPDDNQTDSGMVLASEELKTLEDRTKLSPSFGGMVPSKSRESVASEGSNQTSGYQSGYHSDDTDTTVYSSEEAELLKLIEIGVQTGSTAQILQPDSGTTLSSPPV

Row | IC50 [1] | IC50 [2] | IC50 [3] | IC50 [4] | In Vivo Rabbit Eye VEGF Permeability [5] | Compound
1 | 15 nM | 1 nM | 14 nM |  |  | CCOC(=O)CCCNC(=O)c1cc2nccc(Oc3ccc(NC(=O)Nc4cc(C)ccc4F)c(F)c3)c2s1 [Example 57, ethyl 4-[({7-[3-fluoro-4-({[(2-fluoro-5-methylphenyl)amino]carbonyl}amino)phenoxy]thieno[3,2-b]pyridin-2-yl}carbonyl)amino]butanoate]
2 | 8 nM | 14 nM | 7 nM |  |  | Cc1ccc(F)c(NC(=O)Nc2ccc(Oc3ccnc4cc(C(=O)NCCCN5CCC(O)CC5)sc34)cc2F)c1 [Example 38, 7-[3-fluoro-4-({[(2-fluoro-5-methylphenyl)amino]carbonyl}amino)phenoxy]-N-[3-(4-hydroxypiperidin-1-yl)propyl]thieno[3,2-b]pyridine-2-carboxamide]
3 | 18 nM | 80 nM | 16 nM |  |  | Cc1ccc(F)c(NC(=O)Nc2ccc(Oc3ccnc4cc(C(=O)NCCCN5CCC(C(=O)O)C5)sc34)cc2F)c1 (stereo not shown) [Example 50, 1-{3-[({7-[3-fluoro-4-({[(2-fluoro-5-methylphenyl)amino]carbonyl}amino)phenoxy]thieno[3,2-b]pyridin-2-yl}carbonyl)amino]propyl}pyrrolidine-3-carboxylic acid]
4 | 9 nM | 0.3 nM | 4 nM | 14 nM |  | COC(=O)CN(CCCNC(=O)c1cc2nccc(Oc3ccc(NC(=O)Nc4cc(C)ccc4F)cc3)c2s1)CC(=O)OC [Example 19, dimethyl 2,2′-({3-[({7-[4-({[(2-fluoro-5-methylphenyl)amino]carbonyl}amino)phenoxy]thieno[3,2-b]pyridin-2-yl}carbonyl)amino]propyl}imino)diacetate]
5 | 8 nM | 2 nM | 5 nM |  |  | COC(=O)[C@@H]1C[C@@H](O)CN1CCCNC(=O)c1cc2nccc(Oc3ccc(NC(=O)Nc4cc(C)ccc4F)c(F)c3)c2s1 [Example 39, methyl (2S,4R)-1-{3-[({7-[3-fluoro-4-({[(2-fluoro-5-methylphenyl)amino]carbonyl}amino)phenoxy]thieno[3,2-b]pyridin-2-yl}carbonyl)amino]propyl}-4-hydroxypyrrolidine-2-carboxylate]
6 |  | 328 nM | 19 nM |  | Efficacious | CCNC(=O)[C@H](CCC(=O)O)NC(=O)c1cc2nccc(Oc3ccc(NC(=O)Nc4cc(C)ccc4F)c(F)c3)c2s1 [Example 46, (4S)-5-(ethylamino)-4-[({7-[3-fluoro-4-({[(2-fluoro-5-methylphenyl)amino]carbonyl}amino)phenoxy]thieno[3,2-b]pyridin-2-yl}carbonyl)amino]-5-oxopentanoic acid]
7 | 10 nM |  | 5 nM | 12 nM |  | COC(=O)CN(CCCNC(=O)c1cc2nccc(Oc3ccc(NC(=O)Nc4cc(C)ccc4F)c(F)c3)c2s1)CC(=O)OC [Example 26, dimethyl 2,2′-({3-[({7-[3-fluoro-4-({[(2-fluoro-5-methylphenyl)amino]carbonyl}amino)phenoxy]thieno[3,2-b]pyridin-2-yl}carbonyl)amino]propyl}imino)diacetate]
8 | 60 nM |  | 24 nM | 69 nM |  | Cc1ccc(F)c(NC(=O)Nc2ccc(Oc3ccnc4cc(C(=O)NCCNC(=O)OC(C)(C)C)sc34)cc2F)c1 [Example 33]

More lines, now with the values behind:

Row | Compound | IC50 [1] | IC50 [2] | IC50 [3] | IC50 [4] | In Vivo Rabbit Eye VEGF Permeability [5]
9 | Cc1ccc(F)c(NC(=O)Nc2ccc(Oc3ccnc4cc(C(=O)NCCCN5CCCC(CO)C5)sc34)cc2)c1 (stereo not shown) [Example 15, 7-[4-({[(2-fluoro-5-methylphenyl)amino]carbonyl}amino)phenoxy]-N-{3-[3-(hydroxymethyl)piperidin-1-yl]propyl}thieno[3,2-b]pyridine-2-carboxamide] | 3 nM | 39 nM | 3 nM | 10 nM | 
10 | CCOC(=O)CN1CCN(CCCNC(=O)c2cc3nccc(Oc4ccc(NC(=O)Nc5cc(C)ccc5F)cc4)c3s2)CC1 [Example 14, ethyl (4-{3-[({7-[4-({[(2-fluoro-5-methylphenyl)amino]carbonyl}amino)phenoxy]thieno[3,2-b]pyridin-2-yl}carbonyl)amino]propyl}piperazin-1-yl)acetate] | 5 nM | 34 nM | 4 nM | 13 nM | 
11 | Cc1ccc(F)c(NC(=O)Nc2ccc(Oc3ccnc4cc(C(=O)NCCCc5nn[nH]n5)sc34)cc2)c1 [Example 12, 7-[4-({[(2-fluoro-5-methylphenyl)amino]carbonyl}amino)phenoxy]-N-[3-(2H-tetrazol-5-yl)propyl]thieno[3,2-b]pyridine-2-carboxamide] | 4 nM | 126 nM | 3 nM | 20 nM | 
12 | Cc1ccc(F)c(NC(=O)Nc2ccc(Oc3ccnc4cc(C(=O)NCCCN5CCOC(CO)C5)sc34)cc2F)c1 (stereo not shown) [Example 37, 7-[3-fluoro-4-({[(2-fluoro-5-methylphenyl)amino]carbonyl}amino)phenoxy]-N-{3-[2-(hydroxymethyl)morpholin-4-yl]propyl}thieno[3,2-b]pyridine-2-carboxamide] | 9 nM | 1 nM | 7 nM |  | 
13 | Cc1ccc(F)c(NC(=O)Nc2ccc(Oc3ccnc4cc(C(=O)NCCCC(=O)O)sc34)cc2)c1 [Example 65, 4-[({7-[4-({[(2-fluoro-5-methylphenyl)amino]carbonyl}amino)phenoxy]thieno[3,2-b]pyridin-2-yl}carbonyl)amino]butanoic acid] | 7 nM | 2 nM | 12 nM |  | 
14 | CCN(CC)CCNC(=O)c1cc2nccc(Oc3ccc(NC(=O)Nc4cc(C)ccc4F)cc3)c2s1 [Example 69, N-[2-(diethylamino)ethyl]-7-[4-({[(2-fluoro-5-methylphenyl)amino]carbonyl}amino)phenoxy]thieno[3,2-b]pyridine-2-carboxamide] | 5 nM | 11 nM | 4 nM | 13 nM | 
15 | CCOC(=O)N1CCN(CCNC(=O)c2cc3nccc(Oc4ccc(NC(=O)Nc5cc(C)ccc5F)c(F)c4)c3s2)CC1 [Example 23, ethyl 4-{2-[({7-[3-fluoro-4-({[(2-fluoro-5-methylphenyl)amino]carbonyl}amino)phenoxy]thieno[3,2-b]pyridin-2-yl}carbonyl)amino]ethyl}piperazine-1-carboxylate] | 13 nM | 9 nM | 7 nM | 14 nM | 
16 | COC(=O)C1CCN(C(=O)c2cc3nccc(Oc4ccc(NC(=O)Nc5cc(C)ccc5F)c(F)c4)c3s2)C1 (stereo not shown) [Example 28, methyl 1-({7-[3-fluoro-4-({[(2-fluoro-5-methylphenyl)amino]carbonyl}amino)phenoxy]thieno[3,2-b]pyridin-2-yl}carbonyl)pyrrolidine-3-carboxylate] | 8 nM |  | 5 nM | 17 nM | 
17 | Cc1ccc(F)c(NC(=O)Nc2ccc(Oc3ccnc4cc(C(=O)NCCc5nn[nH]n5)sc34)cc2)c1 [Example 13, 7-[4-({[(2-fluoro-5-methylphenyl)amino]carbonyl}amino)phenoxy]-N-[2-(2H-tetrazol-5-yl)ethyl]thieno[3,2-b]pyridine-2-carboxamide] | 10 nM | 97 nM | 6 nM | 19 nM | 

From patent US9340555B2, “Compounds as tyrosine kinase modulators” (Allergan, Inc., priority 2009, dated 2016)
